Assay results published in patent US20230263801A1, “COMBINATION THERAPY OF PARP INHIBITORS” (IMPACT THERAPEUTICS (SHANGHAI), INC, priority 2020, published 2023).
Like-named read-outs stand apart in the source and are kept apart here. Marks after values point to notes of the source that are not given here. Each block holds one compound with its values, some of them ahead of it.

Tests used:
[1] = tested on: human small cell lung cancer NCI-H209 cells; assay: CCK-8 growth inhibition of NCI-H209 cells, IMP4297 alone and combined with TMZ; assay type: cell-based; details: NCI-H209, 120 h
Experimental: The CCK-8 detection method was used to determine the inhibitory effect of IMP4297 combined with TMZ on the growth of human small cell lung cancer NCI-H209 cells. The resuscitated human small cell lung cancer NCI-H209 cells were inoculated into a culture dish, experimental medium (RPMI1640+20% FBS) was added, and the culture dish was incubated at 37° C. and 5% CO2 in an incubator. Cells with good growth and suitable confluence were selected for the experiment, and centrifiged at 800 rpm for 5 min. The supernatant was discarded. The cells were resuspended with fresh medium and inoculated into a 96-well cell culture plate at a suitable cell density. 190 μL of cell suspension liquid was inoculated into each well. The test compound (including IMP4297, TMZ and reference compound AZD2281) was serially diluted with DMSO at a ratio of 1:3 and 1:10 to 10 concentrations (the last concentration is the DMSO negative control). 5 μL of each concentration was added to 120 μL of media (25 times dilution). The mixture was mixed well by shaking. Separate medication: 5 μL of the diluted medium containing the corresponding concentration of the compound and 5 μL of the medium were added respectively, combined medication. 5 μL of the diluted medium containing the corresponding concentration of the compound and 5 μL of the medium containing the final concentration of 50 μM of TMZ were added respectively. The final concentration of DMSO is […]. The culture plate was then incubated at 37° C. and 5% CO2 in an incubator for 5 days. 20 μL of CCK-8 detection reagent was added to each well, and the culture was continued for 2 hours. The culture plate was then shaked for 10 minutes and placed on a multi-function reader to measure the absorbance value (OD value) using the wavelength of 450/65011m. Graph Pad Prism 6.0 was used to analyze the data. The inhibitory effects of compounds on cell proliferation were plotted based on cell viability and the logarithm of compound concentration. Cell viability % (nM) ODcompound/ODDMSO×100. […] The combination index was calculated using CalcuSyn software. […]

BRCA mutant animal model = details: cited from earlier work
recurrent glioblastoma = details: patients with recurrent glioblastoma; cited from earlier work
[2] = tested on: NCI-H209 human small cell lung cancer xenograft tumor; assay: In vivo efficacy of IMP4297 combined with TMZ in NCI-H209 xenograft tumor model; set-up: species or system nude mice; details: for body weight reduction during the experiment: single agent-treated groups (TMZ 3 mg/kg; IMP4297 10 mg/kg)
Experimental: The anti-tumor efficacy of the compound IMP4297 combined with TMZ was evaluated in the NCI-H209 human small cell lung cancer xenograft tumor model in nude mice. For this purpose, human small cell lung cancer NCI-H209 cells were inoculated into the subcutaneous breast area of the right axilla of nude mice. The cell inoculation amount was 2×10^6 logarithmic growth phase cells. The inoculated mice were used after transplanted tumors were formed. Vigorously growing tumor tissues were cut into small pieces of 1×1×1 mm^3, and inoculated under the skin of the breast area of the right axilla of each BALB/c nude mouse. When the average tumor volume reached about 124.08 (57.16-280.79) mm^3, nude mice were randomly grouped according to the tumor volume and were administered the drugs.
After grouping and drug treatment start, the weight of nude mice was weighed twice a week and recorded. Weight change (%)=(Wt−W1)/W1×100%, wherein W1 is the body weight measured at the time of grouping administration (i.e D1), and Wt is the weight of the recording day. Weight change (%) is a measure of treatment-related toxicity (when average weight loss exceeded 15%, treatment was stopped or the schedule was adjusted until recovery; when average weight loss exceeded 20%, the experiment was terminated). The tumor diameter (length and width) was measured twice a week with a vernier caliper. The tumor volume (length×width^2/2) and the relative tumor volume RTV=Vt/V1 were calculated, wherein V1 is the tumor volume at the time of grouping administration (i.e. D1), and Vt is the tumor volume at each measurement. […] TGM(%)=[(CVt−CV1)−(TVt−TV1)]/(CVt−CV1)×100%, wherein […] is the tumor volume on the recording day of the vehicle control group, […] is the tumor volume of the vehicle control group at the time of grouping administration, TVt is the tumor volume of the drug administration group on the recording day, and TV1 is the tumor volume of the drug administration group at the time of grouping administration.
After the experiment, 3 nude mice were randomly selected from each group, and 300 μL of whole blood was collected from the orbit and placed in a BD K2EDTA anticoagulant tube (REF367841) for routine blood testing.
GraphPad Prism 6.0 software two-way ANOVA was used to compare the mean tumor volume and relative tumor volume between groups. Compared with the control group (vehicle), *p<0.05 (statistical difference), **p<0.01 (significant statistical difference), ***p<0.001 (very significant statistical difference); compared with the TMZ group, ^#p<0.05 (statistical difference), ^##p<0.01 (significant statistical difference), ^###p<0.001 (very significant statistical difference); compared with the IMP4297 group, ^+p<0.05 (statistical difference), ^++p<0.01 (significant statistical difference), ^+++p<0.001 (very significant statistical difference).

[3] = tested on: animal model with BRCA mutation; assay: IMP4297 single agent efficacy in animal model with BRCA mutation; assay type: in vivo; details: 2.5-20 mg/kg QD in mice
cancer [4] = assay: Clinical studies of IMP4297 as a single agent in patients with cancer (ESMO 2020 abstracts); assay type: in vivo; details: 20-120 mg QD in human
[5] = tested on: animal model with BRCA mutation; details: cited from earlier work
cancer [6] = details: QD continuously, cited from earlier work
PARP1 [7] = biological target: T1, PARP1 (Homo sapiens, UniProt P09874); assay: PARP1 trapping in HCT116 cells treated with TMZ (Western blot of chromatin-bound proteins, ImageJ); assay type: cell-based; set-up: endogenous in cells; host or cells: HCT116; details: for grey density value of PARP1 band: 4 hours, HCT116
Experimental: Colorectal carcinoma HCT116 cells were used in the experiment Cells in exponential growth phase were trypsinized and seeded to 10 cm cell culture plate at a density about 10-20% confluency After two days when cell density reached 70-80%, the cell culture was replaced with fresh medium containing vehicle, 0.1 μM or 10 μM of IMP4297 either in the presence or absence of 1 mM TMZ. Cells were treated for 4 hours. Chromatin-bound proteins were extracted according to the “Subcellular Protein Fractionation Kit for Cultured Cells (Thermo, LOT78840)” protocol.
PARP trapping was detected using SDS-PAGE electrophoresis followed by Western blot Extracted chromatin-bound protein samples were mixed with 5×SDS-PAGE solution and heated for 5 min at 100° C. Equal amount (25-30 μg) of protein was loaded to each lane on a pre-made SDS-PAGE gel (Genscript SurePAGE™, Bis-Tris, 4-20%, 15 wells M00657). Anti-PARP1 antibody (ABCAM ab227244) used in the study was 1:1000 diluted, anti-Histone 113 antibody (ABCAM ab1791) was 1.5000 diluted and anti-rabbit IgG HRP-linked Antibody (CST 7074s) was 1:2000 diluted. The bands were detected by standard Western blot protocol.

PARP1 [8] = biological target: T1, PARP1; assay: PARP1 trapping in DU145 cells treated with MMS (Western blot of nuclear chromosomal fraction, ImageJ); assay type: cell-based; set-up: the nuclear chromosomal component was extracted according to subcellular protein fractionation kit instructions; endogenous in cells; host or cells: DU145; details: for grey density value of PARP1 band: MMS 0.01%, 4 hours
Experimental: Human prostate cancer DU145 cells were used in the experiment. On the first day, cells were seeded to 10 cm cell culture dishes and kept in an incubator overnight. […] The plates were swirled, and the cells were kept in an incubator at 37° C., 5% CO2 for 4 hours. Totally 12 samples were prepared and tested. After incubation, the nuclear chromosomal component was extracted according to subcellular protein fractionation kit instructions. Protein concentration was measured by Pierce® BCA Protein Assay Kit (Thermo) and protein was ready for western blot assay. 10 μg protein was loaded into each well of bolt gels, then wet transfer was performed, and the membrane was incubated overnight at 4° C. with anti-PARP antibody (Santa Cruz Biotechnology) with 1.500 dilution and 1:25000 dilution of anti-H3 antibody, respectively. The membrane was washed the next day with TBST 3 times, 5 minutes/time, then incubated with Goat anti-rabbit IgG-HRP (Santa Cruz Biotechnology) in a 1:4000 dilution for 1 hour at room temperature. ECL Prime Western Blotting Det kit (GE) was used to develop the target on the membrane.

[9] = separate medication, 5 days, CCK-8, read-out: IC50, proliferation of NCI-H209 cells

T1 sequence (P09874 whole entry): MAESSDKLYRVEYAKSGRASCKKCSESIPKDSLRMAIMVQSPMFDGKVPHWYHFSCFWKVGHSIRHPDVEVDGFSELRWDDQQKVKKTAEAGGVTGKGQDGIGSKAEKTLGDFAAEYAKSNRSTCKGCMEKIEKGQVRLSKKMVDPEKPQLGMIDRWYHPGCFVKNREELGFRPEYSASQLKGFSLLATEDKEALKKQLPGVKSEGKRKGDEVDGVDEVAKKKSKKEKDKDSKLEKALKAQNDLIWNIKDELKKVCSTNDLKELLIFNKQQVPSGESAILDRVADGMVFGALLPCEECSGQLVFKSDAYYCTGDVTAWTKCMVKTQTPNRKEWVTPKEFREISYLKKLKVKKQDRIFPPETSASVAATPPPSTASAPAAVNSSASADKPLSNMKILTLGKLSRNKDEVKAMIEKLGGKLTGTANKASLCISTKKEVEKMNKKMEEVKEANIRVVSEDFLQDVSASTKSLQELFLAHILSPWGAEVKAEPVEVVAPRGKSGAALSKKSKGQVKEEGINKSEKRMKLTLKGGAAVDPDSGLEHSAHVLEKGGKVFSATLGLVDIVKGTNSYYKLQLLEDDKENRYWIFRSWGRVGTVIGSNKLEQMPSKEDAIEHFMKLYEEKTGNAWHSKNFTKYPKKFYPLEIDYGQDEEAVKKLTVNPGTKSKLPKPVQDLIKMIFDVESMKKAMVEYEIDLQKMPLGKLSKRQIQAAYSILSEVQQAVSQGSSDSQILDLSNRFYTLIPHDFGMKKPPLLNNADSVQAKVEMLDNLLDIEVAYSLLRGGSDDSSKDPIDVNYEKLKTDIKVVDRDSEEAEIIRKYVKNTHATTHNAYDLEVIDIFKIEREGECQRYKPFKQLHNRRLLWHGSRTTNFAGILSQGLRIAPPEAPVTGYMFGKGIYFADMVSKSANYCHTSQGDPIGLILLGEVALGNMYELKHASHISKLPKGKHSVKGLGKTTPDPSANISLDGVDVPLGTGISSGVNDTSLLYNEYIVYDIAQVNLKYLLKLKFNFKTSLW

IC50 ([1]; read-out: IC50, proliferation of NCI-H209 cells): 2.18 µM
Structure (SMILES): O=C(c1cc(Cc2n[nH]c(=O)c3ccccc23)ccc1F)N1CCN(C(=O)C2CC2)CC1 [Olaparib]
single effective dose (BRCA mutant animal model; BRCA mutant animal model study): 50-100 mg/kg per day
effect on TMZ-related hematological toxicity (recurrent glioblastoma): exacerbate TMZ-related hematological toxicity

Structure (SMILES): Cn1ncnc1[C@H]1c2n[nH]c(=O)c3cc(F)cc(c23)N[C@@H]1c1ccc(F)cc1 [Talazoparib]
single agent effective dose (BRCA mutant animal model; BRCA mutated model): 0.33 mg/kg

IC50 [1, 9]: 0.113 µM
PARP1 trapping in nuclear chromosome (PARP1 [7]; 0.1-10 μM in HCT116 cells in the presence of TMZ): good PARP1 trapping
grey density value of PARP1 band (PARP1 [7]; IMP4297 0.1 μmol/L in the presence of TMZ 1 mM): 398
grey density value of PARP1 band (PARP1 [7]; IMP4297 0.1 μmol/L, vehicle (no TMZ)): 141
grey density value of PARP1 band (PARP1 [7]; IMP4297 10 μmol/L in the presence of TMZ 1 mM): 446
grey density value of PARP1 band (PARP1 [7]; IMP4297 10 μmol/L, vehicle (no TMZ)): 182
grey density value of PARP1 band (PARP1 [8]; 0.01 μmol/L drug, DU145): 3667.63
grey density value of PARP1 band (PARP1 [8]; 0.1 μmol/L drug, DU145): 4932.39
grey density value of PARP1 band (PARP1 [8]; 1 μmol/L drug, DU145): 6036.79
grey density value of PARP1 band (PARP1 [8]; 10 μmol/L drug, DU145): 5302.8
PARP1 trapping in nuclear chromosome (PARP1 [8]; 0.01-10 μM, DU145 cells treated with MMS): good PARP1 trapping
Structure (SMILES): O=C(c1cc(Cn2c(=O)[nH]c(=O)c3c(F)cccc32)ccc1F)N1CCN(c2ncccn2)CC1 [IMP4297, 5-fluoro-1-(4-fluoro-3-(4-(pyrimidin-2-yl)piperazine-1-carbonyl)benzyl)quinazoline-2,4(1H,3H)-dione]
T/C (%) ([2]; IMP4297 10 mpk p.o. QD x 21 D): 79.12** %
TGI (%) ([2]; IMP4297 10 mpk p.o. QD x 21 D): 18.80** %
body weight reduction during the experiment [2]: no body weight reduction
inhibitory effect on tumor growth versus vehicle ([2]; single agent: TMZ 3 mg/kg, IMP4297 10 mg/kg): no significant inhibitory effect on tumor growth
therapeutic window [3]: 8 fold
therapeutic window (cancer [4]): 6 fold
effective dose as a single agent [5]: 2.5-20 mg/kg per day
clinically effective dose as a single agent (cancer [6]; cancer patients): 20 to 120 mg
RP2D as a single agent (cancer [6]): 100 mg
PARP1 trapping compared with Olaparib (PARP1 [8]; same concentrations and conditions, DU145): stronger PARP1 trapping in nuclear chromosome than Olaparib

IC50 [1, 9]: > 100 µM
Average weight change (%) ([2]; TMZ 3 mg/kg p.o. QD x 21 D, versus initial weight): 7.99 ± 5.21%
Structure (SMILES): Cn1nnc2c(C(N)=O)ncn2c1=O [TMZ, Temozolomide, reference compound]
T/C (%) ([2]; TMZ 3 mg/kg p.o. QD x 21 D): 64.03**** %
TGI (%) ([2]; TMZ 3 mg/kg p.o. QD x 21 D): 31.66**** %
body weight reduction during the experiment [2]: no body weight reduction
